# Source: patent publication US20120302584A1, “NOVEL SALTS FORMS OF PYRIMIDIN-5-YL ACETIC ACID DERIVATIVE” (BOEHRINGER INGELHEIM INTERNATIONAL GMBH, priority 2009, published 2012)
# Structures can show the parent of a compound that is named as a salt.
# Tests used:
# [1] = Dynamic vapor sorption (water sorption/desorption); type: physicochemical; conditions: 25° C.; for hygroscopicity (in words): conditions used in this analysis
# Procedure: Vapor sorption/desorption was carried out using Surface Measurement Systems DVS-HT. Samples were placed into a foil insert placed on a sample pan. […] The equilibrium point of each step was reached when 0.002% of weight change was reached.
# [2] = Kinetic solubility in sodium dodecyl sulfate solution at pH 6.8 and 37° C.; type: physicochemical; conditions: for maximum solubility (kinetic solubility): pH 6.8, 0.2% sodium dodecyl sulfate (SDS) solution, after about 5 minutes
# Procedure: FIG. 7 also depicts comparative kinetic solubility for the acid-free form of the compound of formula (I)(♦), a choline salt of the compound of formula (I)( ? ), and an ethylenediamine salt of the compound of formula (I) (▴).
# After 60 minutes, the solubilities ranged from about 150 μg/mL (for the ethylenediamine salt of the compound of formula (I)) to about 245 μg/mL (for the choline salt of the compound of formula (I)).
# [3] = pH 6.8, 0.2% SDS solution, after 60 minutes
SMILES,hygroscopicity (in words) [1],moisture gain through 85% relative humidity [1],maximum solubility (kinetic solubility) [2],"solubility after 60 minutes (kinetic solubility) [2, 3]",further results
"CN(C)c1nc(Cc2ccc(NC(=O)c3ccc(C(F)(F)F)cc3)cc2)nc(N(C)C)c1CC(=O)O [sodium salt of the invention, [4,6-bis(dimethylamino)-2-(4-{[4-(trifluoromethyl)benzoyl]amino}benzyl)pyrimidin-5-yl] acetic acid]",hygroscopic,about 17%,about 1010 μg/mL,,moisture gain through 55% relative humidity ([1]; 55% relative humidity): less than 2%
"CN(C)c1nc(Cc2ccc(NC(=O)c3ccc(C(F)(F)F)cc3)cc2)nc(N(C)C)c1CC(=O)O [free acid form of the compound of formula (I)] [[4,6-bis(dimethylamino)-2-(4-{[4-(trifluoromethyl)benzoyl]amino}benzyl)pyrimidin-5-yl] acetic acid]",,,about 50 μg/mL,essentially unchanged,
"CN(C)c1nc(Cc2ccc(NC(=O)c3ccc(C(F)(F)F)cc3)cc2)nc(N(C)C)c1CC(=O)O [N-methyl-D-glucamine salt of the invention] [[4,6-bis(dimethylamino)-2-(4-{[4-(trifluoromethyl)benzoyl]amino}benzyl)pyrimidin-5-yl] acetic acid]",mild hygroscopicity,about 3.7%,about 910 μg/mL,,
"CN(C)c1nc(Cc2ccc(NC(=O)c3ccc(C(F)(F)F)cc3)cc2)nc(N(C)C)c1CC(=O)O [choline salt of the compound of formula (I)] [[4,6-bis(dimethylamino)-2-(4-{[4-(trifluoromethyl)benzoyl]amino}benzyl)pyrimidin-5-yl] acetic acid, reference compound]",,,about 960 μg/mL,,
"CN(C)c1nc(Cc2ccc(NC(=O)c3ccc(C(F)(F)F)cc3)cc2)nc(N(C)C)c1CC(=O)O [ethylenediamine salt of the compound of formula (I)] [[4,6-bis(dimethylamino)-2-(4-{[4-(trifluoromethyl)benzoyl]amino}benzyl)pyrimidin-5-yl] acetic acid, reference compound]",,,,about 150 μg/mL,maximum solubility (kinetic solubility) ([2]; listed as ethylenediame salt of the compound of formula (I)): about 670 μg/mL
"CN(C)c1nc(Cc2ccc(NC(=O)c3ccc(C(F)(F)F)cc3)cc2)nc(N(C)C)c1CC(=O)O [[4,6-bis(dimethylamino)-2-(4-{[4-(trifluoromethyl)benzoyl]amino}benzyl)pyrimidin-5-yl] acetic acid, reference compound]",,,,,"solubility kinetic at 60 min ([2]; 0.2% sodium dodecyl sulfate (SDS) solution, 37 °C, pH 6.8, aqueous with cosolvent or surfactant or cyclodextrin, pH 6.8, 0.2% SDS solution, after 60 minutes): ~245 µg/mL"
